Measured values reported in the kinase profiling compilation of Christmann-Franck et al. (2016).

How the values were obtained:
Test in all cases: radiometric filter-binding kinase assay
TESK1 (human) = TESK1 (human) (UniProt Q15569)
[1] = test system: OXSR1 (human), O95747 [T185E]
[2] = test system: TGFBR1 (human), P36897 [T204D]
SIK2 (human) = SIK2 (human) (UniProt Q9H0K1)
ULK1 (human) = ULK1 (human) (UniProt O75385)
AURKB (human) = AURKB (human) (UniProt Q96GD4)
CSNK1G2 (human) = CSNK1G2 (human) (UniProt P78368)
ULK2 (human) = ULK2 (human) (UniProt Q8IYT8)
Sequence of ULK2 (human) (Q8IYT8 whole entry, looked up): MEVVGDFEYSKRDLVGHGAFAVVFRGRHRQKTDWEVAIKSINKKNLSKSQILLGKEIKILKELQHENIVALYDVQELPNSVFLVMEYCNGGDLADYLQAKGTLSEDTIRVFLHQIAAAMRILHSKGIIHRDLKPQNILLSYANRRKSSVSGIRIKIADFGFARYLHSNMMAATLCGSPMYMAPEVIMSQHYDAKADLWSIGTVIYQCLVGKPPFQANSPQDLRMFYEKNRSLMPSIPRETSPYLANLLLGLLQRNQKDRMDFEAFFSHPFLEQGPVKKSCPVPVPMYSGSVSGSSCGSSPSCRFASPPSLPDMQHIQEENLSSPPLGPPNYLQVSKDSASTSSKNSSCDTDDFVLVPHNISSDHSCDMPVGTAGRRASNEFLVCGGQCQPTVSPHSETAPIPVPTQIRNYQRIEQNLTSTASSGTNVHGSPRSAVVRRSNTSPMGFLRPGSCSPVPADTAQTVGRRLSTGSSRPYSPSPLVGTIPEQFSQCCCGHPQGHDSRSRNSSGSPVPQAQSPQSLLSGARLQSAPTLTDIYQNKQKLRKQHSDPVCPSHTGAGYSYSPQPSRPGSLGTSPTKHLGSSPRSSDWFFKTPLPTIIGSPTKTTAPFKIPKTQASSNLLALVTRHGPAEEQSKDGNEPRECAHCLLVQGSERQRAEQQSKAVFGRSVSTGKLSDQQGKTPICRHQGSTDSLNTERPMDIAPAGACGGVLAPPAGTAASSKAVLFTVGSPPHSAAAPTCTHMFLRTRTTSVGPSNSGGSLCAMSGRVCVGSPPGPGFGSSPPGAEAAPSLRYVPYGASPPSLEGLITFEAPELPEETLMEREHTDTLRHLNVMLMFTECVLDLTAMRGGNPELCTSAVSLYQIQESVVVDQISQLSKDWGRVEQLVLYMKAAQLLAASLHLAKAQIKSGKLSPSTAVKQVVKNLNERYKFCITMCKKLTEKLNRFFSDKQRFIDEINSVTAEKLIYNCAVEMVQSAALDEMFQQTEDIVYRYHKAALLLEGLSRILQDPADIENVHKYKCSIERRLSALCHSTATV

DDR2 (human) = DDR2 (human) (UniProt Q16832)
Sequence of DDR2 (human) (Q16832 whole entry, looked up): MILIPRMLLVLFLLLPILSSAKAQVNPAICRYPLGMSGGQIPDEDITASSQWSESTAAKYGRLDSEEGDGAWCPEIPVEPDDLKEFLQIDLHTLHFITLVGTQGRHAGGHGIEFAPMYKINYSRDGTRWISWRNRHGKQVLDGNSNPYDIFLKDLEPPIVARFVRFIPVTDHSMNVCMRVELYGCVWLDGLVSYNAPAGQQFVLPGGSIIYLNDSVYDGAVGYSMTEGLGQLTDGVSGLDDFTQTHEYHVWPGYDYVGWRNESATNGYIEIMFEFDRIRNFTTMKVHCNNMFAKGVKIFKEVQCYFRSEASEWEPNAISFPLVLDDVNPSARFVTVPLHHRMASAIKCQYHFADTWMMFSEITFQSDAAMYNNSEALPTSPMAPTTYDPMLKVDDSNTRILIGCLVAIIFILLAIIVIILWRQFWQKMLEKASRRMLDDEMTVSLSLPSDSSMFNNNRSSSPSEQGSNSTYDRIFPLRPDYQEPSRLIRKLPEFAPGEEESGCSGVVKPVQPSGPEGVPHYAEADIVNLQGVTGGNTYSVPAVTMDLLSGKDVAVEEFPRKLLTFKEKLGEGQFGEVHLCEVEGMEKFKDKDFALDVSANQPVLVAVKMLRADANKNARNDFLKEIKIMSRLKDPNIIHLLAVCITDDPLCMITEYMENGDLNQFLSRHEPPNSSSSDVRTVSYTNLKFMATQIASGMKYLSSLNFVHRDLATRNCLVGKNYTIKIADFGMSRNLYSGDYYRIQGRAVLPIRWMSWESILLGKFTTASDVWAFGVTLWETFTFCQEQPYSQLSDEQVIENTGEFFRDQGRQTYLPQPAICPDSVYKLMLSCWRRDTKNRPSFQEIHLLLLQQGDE

[3] = target: PRKAA1 PRKAB2 PRKAG1 (human) (UniProt O43741+Q13131+P54619)
WNK1 (human) = WNK1 (human) (UniProt Q9H4A3)
PTK6 (human) = PTK6 (human) (UniProt Q13882)
TSSK1B (human) = TSSK1B (human) (UniProt Q9BXA7)
TEK (human) = TEK (human) (UniProt Q02763)
MAP4K3 (human) = MAP4K3 (human) (UniProt Q8IVH8)
PDGFRA (human) = PDGFRA (human) (UniProt P16234)
TTBK1 (human) = TTBK1 (human) (UniProt Q5TCY1)
SIK3 (human) = SIK3 (human) (UniProt Q9Y2K2)
PHKG1 (human) = PHKG1 (human) (UniProt Q16816)
STK24 (human) = STK24 (human) (UniProt Q9Y6E0)
CDK9 CCNT1 (human) = CDK9 CCNT1 (human) (UniProt P50750+O60563)
MAP4K5 (human) = MAP4K5 (human) (UniProt Q9Y4K4)
PRKCG (human) = PRKCG (human) (UniProt P05129)
TLK1 (human) = TLK1 (human) (UniProt Q9UKI8)
Sequence of TLK1 (human) (Q9UKI8 whole entry, looked up): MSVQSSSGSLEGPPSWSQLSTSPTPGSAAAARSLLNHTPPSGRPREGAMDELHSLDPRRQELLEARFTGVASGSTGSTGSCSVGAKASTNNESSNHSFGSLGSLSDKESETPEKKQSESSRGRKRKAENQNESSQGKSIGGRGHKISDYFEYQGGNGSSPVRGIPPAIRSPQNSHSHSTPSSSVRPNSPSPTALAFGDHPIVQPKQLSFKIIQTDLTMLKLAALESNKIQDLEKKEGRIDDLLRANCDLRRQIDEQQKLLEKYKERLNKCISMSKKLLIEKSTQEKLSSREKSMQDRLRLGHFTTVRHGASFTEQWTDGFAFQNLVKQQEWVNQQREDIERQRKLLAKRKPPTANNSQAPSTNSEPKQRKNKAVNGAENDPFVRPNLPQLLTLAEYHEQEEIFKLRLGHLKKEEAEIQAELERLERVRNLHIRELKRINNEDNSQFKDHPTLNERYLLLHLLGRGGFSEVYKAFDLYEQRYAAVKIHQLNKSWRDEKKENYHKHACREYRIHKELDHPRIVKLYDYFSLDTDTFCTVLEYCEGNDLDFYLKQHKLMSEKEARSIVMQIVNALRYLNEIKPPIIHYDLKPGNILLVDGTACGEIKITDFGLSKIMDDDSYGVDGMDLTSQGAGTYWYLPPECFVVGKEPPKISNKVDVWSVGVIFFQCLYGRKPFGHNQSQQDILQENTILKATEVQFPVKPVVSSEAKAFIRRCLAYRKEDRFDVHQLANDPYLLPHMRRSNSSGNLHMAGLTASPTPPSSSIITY

ZAP70 (human) = ZAP70 (human) (UniProt P43403)
STK33 (human) = STK33 (human) (UniProt Q9BYT3)
IRAK1 (human) = IRAK1 (human) (UniProt P51617)
STK16 (human) = STK16 (human) (UniProt O75716)
TTBK2 (human) = TTBK2 (human) (UniProt Q6IQ55)
ABL1 (human) = ABL1 (human) (UniProt P00519)
MAPK7 (human) = MAPK7 (human) (UniProt Q13164)
EIF2AK3 (human) = EIF2AK3 (human) (UniProt Q9NZJ5)

Sequence of AURKB (human) (Q96GD4 whole entry, looked up): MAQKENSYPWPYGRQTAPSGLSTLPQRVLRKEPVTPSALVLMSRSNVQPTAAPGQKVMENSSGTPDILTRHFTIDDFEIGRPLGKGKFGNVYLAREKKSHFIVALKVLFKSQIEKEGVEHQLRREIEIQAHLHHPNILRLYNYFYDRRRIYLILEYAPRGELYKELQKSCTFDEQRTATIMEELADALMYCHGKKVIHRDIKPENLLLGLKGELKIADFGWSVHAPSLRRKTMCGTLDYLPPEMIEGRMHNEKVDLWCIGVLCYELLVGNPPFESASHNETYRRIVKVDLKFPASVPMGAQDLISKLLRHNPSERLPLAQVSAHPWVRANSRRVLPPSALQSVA
Sequence of SIK2 (human) (Q9H0K1 whole entry, looked up): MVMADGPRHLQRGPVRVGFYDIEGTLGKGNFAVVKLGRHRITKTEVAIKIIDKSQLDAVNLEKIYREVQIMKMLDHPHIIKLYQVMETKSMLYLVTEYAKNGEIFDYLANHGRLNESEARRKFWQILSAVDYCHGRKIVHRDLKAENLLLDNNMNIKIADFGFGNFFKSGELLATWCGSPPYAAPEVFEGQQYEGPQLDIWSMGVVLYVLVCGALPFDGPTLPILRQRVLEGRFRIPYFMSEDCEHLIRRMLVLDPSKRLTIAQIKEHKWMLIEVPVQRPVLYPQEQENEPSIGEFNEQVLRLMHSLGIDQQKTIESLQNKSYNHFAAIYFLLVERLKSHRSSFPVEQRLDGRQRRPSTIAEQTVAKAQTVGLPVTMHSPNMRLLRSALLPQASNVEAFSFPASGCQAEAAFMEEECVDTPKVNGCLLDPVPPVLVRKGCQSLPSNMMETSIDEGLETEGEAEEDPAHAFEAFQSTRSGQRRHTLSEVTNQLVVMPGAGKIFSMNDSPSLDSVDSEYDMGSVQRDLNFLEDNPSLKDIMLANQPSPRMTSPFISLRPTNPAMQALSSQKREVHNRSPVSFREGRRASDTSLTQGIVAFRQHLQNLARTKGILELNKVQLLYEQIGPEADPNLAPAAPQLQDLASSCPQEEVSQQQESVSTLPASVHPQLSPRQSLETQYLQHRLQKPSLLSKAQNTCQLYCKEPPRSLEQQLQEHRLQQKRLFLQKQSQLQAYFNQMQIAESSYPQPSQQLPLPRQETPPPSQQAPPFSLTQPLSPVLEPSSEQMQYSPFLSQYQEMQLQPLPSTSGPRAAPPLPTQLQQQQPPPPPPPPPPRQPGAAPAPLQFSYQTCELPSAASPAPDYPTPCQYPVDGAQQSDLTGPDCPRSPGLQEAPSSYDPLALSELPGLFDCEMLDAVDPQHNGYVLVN
Sequence of ULK1 (human) (O75385 whole entry, looked up): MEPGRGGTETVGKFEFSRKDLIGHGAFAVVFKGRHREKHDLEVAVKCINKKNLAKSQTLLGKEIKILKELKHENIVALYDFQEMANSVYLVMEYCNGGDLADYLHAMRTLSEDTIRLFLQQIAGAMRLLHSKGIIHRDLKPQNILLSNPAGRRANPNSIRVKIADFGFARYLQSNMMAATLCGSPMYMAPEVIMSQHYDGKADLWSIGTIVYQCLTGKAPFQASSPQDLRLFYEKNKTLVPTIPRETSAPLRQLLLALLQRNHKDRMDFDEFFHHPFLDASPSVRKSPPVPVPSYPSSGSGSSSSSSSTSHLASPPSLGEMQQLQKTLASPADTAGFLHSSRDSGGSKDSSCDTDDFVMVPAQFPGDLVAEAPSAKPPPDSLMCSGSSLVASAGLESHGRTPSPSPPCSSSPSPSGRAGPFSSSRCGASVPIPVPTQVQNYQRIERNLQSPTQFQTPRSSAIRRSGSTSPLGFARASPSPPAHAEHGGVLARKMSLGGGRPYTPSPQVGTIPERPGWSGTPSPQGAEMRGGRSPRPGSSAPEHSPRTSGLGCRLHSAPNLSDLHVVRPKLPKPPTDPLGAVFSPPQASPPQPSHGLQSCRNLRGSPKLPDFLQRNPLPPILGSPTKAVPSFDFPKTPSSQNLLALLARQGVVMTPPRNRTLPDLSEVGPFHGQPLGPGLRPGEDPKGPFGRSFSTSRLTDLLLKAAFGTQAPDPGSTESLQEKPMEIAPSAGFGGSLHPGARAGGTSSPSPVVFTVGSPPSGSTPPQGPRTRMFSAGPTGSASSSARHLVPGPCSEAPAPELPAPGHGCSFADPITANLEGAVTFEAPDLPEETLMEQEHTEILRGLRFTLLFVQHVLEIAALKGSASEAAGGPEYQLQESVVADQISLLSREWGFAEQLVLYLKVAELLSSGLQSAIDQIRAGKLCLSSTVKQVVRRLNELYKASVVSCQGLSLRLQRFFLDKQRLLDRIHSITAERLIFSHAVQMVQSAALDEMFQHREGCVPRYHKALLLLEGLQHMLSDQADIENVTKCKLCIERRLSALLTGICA

CCn1c(-c2nonc2N)nc2cncc(CNC3CCNCC3)c21
residual activity (TESK1 (human); compound 0.1 µM): 103%
residual activity (TESK1 (human); compound 1.0 µM): 114%
residual activity (TESK1 (human); compound 10.0 µM): 104%
residual activity ([1]; compound 0.1 µM): 107%
residual activity ([1]; compound 1.0 µM): 102%
residual activity ([1]; compound 10.0 µM): 97%
residual activity ([2]; compound 0.1 µM): 85%
residual activity ([2]; compound 1.0 µM): 90%
residual activity ([2]; compound 10.0 µM): 92%
residual activity (SIK2 (human); compound 0.1 µM): 97%
residual activity (SIK2 (human); compound 1.0 µM): 93%
residual activity (SIK2 (human); compound 10.0 µM): 95%
residual activity (ULK1 (human); compound 0.1 µM): 83%
residual activity (ULK1 (human); compound 1.0 µM): 74%
residual activity (ULK1 (human); compound 10.0 µM): 43%
residual activity (AURKB (human); compound 0.1 µM): 85%
residual activity (AURKB (human); compound 1.0 µM): 76%
residual activity (AURKB (human); compound 10.0 µM): 71%
residual activity (CSNK1G2 (human); compound 0.1 µM): 101%
residual activity (CSNK1G2 (human); compound 1.0 µM): 92%
residual activity (CSNK1G2 (human); compound 10.0 µM): 92%
residual activity (ULK2 (human); compound 0.1 µM): 93%
residual activity (ULK2 (human); compound 1.0 µM): 98%
residual activity (ULK2 (human); compound 10.0 µM): 73%
residual activity (DDR2 (human); compound 0.1 µM): 108%
residual activity (DDR2 (human); compound 1.0 µM): 97%
residual activity (DDR2 (human); compound 10.0 µM): 104%
residual activity ([3]; compound 0.1 µM): 115%
residual activity ([3]; compound 1.0 µM): 78%
residual activity ([3]; compound 10.0 µM): 34%
residual activity (WNK1 (human); compound 0.1 µM): 106%
residual activity (WNK1 (human); compound 1.0 µM): 102%
residual activity (WNK1 (human); compound 10.0 µM): 100%
residual activity (PTK6 (human); compound 0.1 µM): 91%
residual activity (PTK6 (human); compound 10.0 µM): 91%
residual activity (TSSK1B (human); compound 0.1 µM): 88%
residual activity (TSSK1B (human); compound 10.0 µM): 42%
residual activity (TEK (human); compound 1.0 µM): 116%
residual activity (TEK (human); compound 10.0 µM): 111%
residual activity (MAP4K3 (human); compound 0.1 µM): 99%
residual activity (MAP4K3 (human); compound 10.0 µM): 66%
residual activity (PDGFRA (human); compound 0.1 µM): 120%
residual activity (PDGFRA (human); compound 1.0 µM): 101%
residual activity (PDGFRA (human); compound 10.0 µM): 99%
residual activity (TTBK1 (human); compound 0.1 µM): 104%
residual activity (TTBK1 (human); compound 1.0 µM): 100%
residual activity (TTBK1 (human); compound 10.0 µM): 91%
residual activity (SIK3 (human); compound 0.1 µM): 89%
residual activity (SIK3 (human); compound 1.0 µM): 94%
residual activity (SIK3 (human); compound 10.0 µM): 89%
residual activity (PHKG1 (human); compound 0.1 µM): 101%
residual activity (PHKG1 (human); compound 1.0 µM): 101%
residual activity (PHKG1 (human); compound 10.0 µM): 75%
residual activity (STK24 (human); compound 0.1 µM): 86%
residual activity (STK24 (human); compound 1.0 µM): 91%
residual activity (STK24 (human); compound 10.0 µM): 73%
residual activity (CDK9 CCNT1 (human); compound 0.1 µM): 103%
residual activity (CDK9 CCNT1 (human); compound 1.0 µM): 115%
residual activity (CDK9 CCNT1 (human); compound 10.0 µM): 103%
residual activity (MAP4K5 (human); compound 0.1 µM): 107%
residual activity (MAP4K5 (human); compound 1.0 µM): 103%
residual activity (MAP4K5 (human); compound 10.0 µM): 84%
residual activity (PRKCG (human); compound 0.1 µM): 96%
residual activity (PRKCG (human); compound 1.0 µM): 80%
residual activity (PRKCG (human); compound 10.0 µM): 46%
residual activity (TLK1 (human); compound 0.1 µM): 92%
residual activity (TLK1 (human); compound 1.0 µM): 92%
residual activity (TLK1 (human); compound 10.0 µM): 88%
residual activity (ZAP70 (human); compound 0.1 µM): 83%
residual activity (ZAP70 (human); compound 1.0 µM): 84%
residual activity (ZAP70 (human); compound 10.0 µM): 84%
residual activity (STK33 (human); compound 0.1 µM): 104%
residual activity (STK33 (human); compound 1.0 µM): 106%
residual activity (STK33 (human); compound 10.0 µM): 74%
residual activity (IRAK1 (human); compound 0.1 µM): 99%
residual activity (IRAK1 (human); compound 1.0 µM): 103%
residual activity (IRAK1 (human); compound 10.0 µM): 75%
residual activity (STK16 (human); compound 1.0 µM): 103%
residual activity (STK16 (human); compound 10.0 µM): 83%
residual activity (TTBK2 (human); compound 0.1 µM): 91%
residual activity (TTBK2 (human); compound 1.0 µM): 95%
residual activity (TTBK2 (human); compound 10.0 µM): 101%
residual activity (ABL1 (human); compound 0.1 µM): 102%
residual activity (ABL1 (human); compound 1.0 µM): 109%
residual activity (ABL1 (human); compound 10.0 µM): 96%
residual activity (MAPK7 (human); compound 0.1 µM): 96%
residual activity (MAPK7 (human); compound 1.0 µM): 83%
residual activity (MAPK7 (human); compound 10.0 µM): 64%
residual activity (EIF2AK3 (human); compound 0.1 µM): 93%
residual activity (EIF2AK3 (human); compound 1.0 µM): 105%
residual activity (EIF2AK3 (human); compound 10.0 µM): 94%
